Measured values published in patent US20120010241A1, “HSP90 INHIBITING INDAZOLE DERIVATIVES, COMPOSITIONS CONTAINING SAME AND USE THEREOF” (SANOFI, priority 2009, published 2012).
pIC50: −log10 of the molar value.

Assays:
[1] = system: Her2 expression in SKBr3 cells; test: phenotypic SKBr3/HER2 cell test (Her2 expression at the cell surface, flow cytometry); type: cell-based; details: Homo sapiens, SK-BR-3, incubation for 24 h, anti-Her2 antibody coupled to PE, FACS
Protocol: The cellular activity of the compounds can in particular be evaluated by means of the phenotypic “SKBr3/HER2” cell test described below:
The SKBr3 […] adenocarcinoma cells, overexpressing the Her2 tyrosine kinase receptor, originate from the ATCC (HTB-30) and are cultured in McCoy's 5A medium supplemented with 10% FBS and 1% L-glutamine.
The cells are seeded in 12-well plates at a proportion of 125 000 cells per well in 1 ml of complete medium. The following day, the products are added at varying concentrations. After incubation for 24 h, the cells are trypsinized, washed with PBS and incubated with 100 ng of anti-Her2 antibody coupled to PE (phycoerythrin) (BD 340552) for 30 minutes at 4° C. in the dark. The fluorescence due to the expression of the Her2 receptor at the surface of the cells is then read using a FACS Calibur flow cytometer (Becton-Dickinson). The percentage inhibition of Her2 expression as a function of the concentrations of product tested is fitted by the nonlinear regression technique (XLfit, equation 205) in order to measure the IC50 for each product.

[2] = target: Hsp82 (Saccharomyces cerevisiae, UniProt P02829); test: Hsp82/ATPase test (PK/LDH coupled spectrophotometric method; malachite green method also described); type: biochemical; details: 1 μM Hsp82, 250 μM ATP, 37° C., absorbance at 340 nm
Protocol: The biochemical activity of the compounds can in particular be evaluated by means of the “Hsp82/ATPase” test described below:
The inorganic phosphate released during the hydrolysis of ATP by the ATPase activity of Hsp82 is quantified by the malachite green method. In the presence of this reagent, formation of the inorganic phosphate-molybdate-malachite green complex, which absorbs at a wavelength of 620 nm, occurs.
The products to be evaluated are incubated in a reaction volume of 30 μl, in the presence of 1 μM Hsp82 and of 250 μM of substrate (ATP) in a buffer composed of 50 mM Hepes-NaOH (pH 7.5), 1 mM DTT, 5 mM MgCl2 and 50 mM KCl at 37° C. for 60 min. In parallel, an inorganic phosphate range of between 1 and 40 μM is made up in the same buffer. […] The inorganic phosphate concentration of each sample is then calculated from the standard curve. The ATPase activity of Hsp82 is expressed as concentration of inorganic phosphate produced in 60 minutes. The effect of the various products tested is expressed as percentage inhibition of the ATPase activity.
The formation of ADP due to the ATPase activity of Hsp82 was used to develop another method for evaluating the enzyme activity of this enzyme by application of an enzymatic coupling system involving pyruvate kinase (PK) and lactate dehydrogenase (LDH). In this kinetic-type spectrophotometric method, PK catalyses the formation of ATP and of pyruvate from phosphoenol pyruvate (PEP) and the ADP produced by Hsp82. The pyruvate formed, which is a substrate for LDH, is subsequently converted to lactate in the presence of NADH. In this case, the decrease in the NADH concentration, measured through the decrease in absorbance at the wavelength of 340 nm, is proportional to the concentration of ADP produced by Hsp82.
The products tested are incubated in a reaction volume of 100 μl of buffer composed of 100 mM Hepes-NaOH (pH 7.5), 5 mM MgCl2, 1 mM DTT, 150 mM KCl, 0.3 mM NADH, 2.5 mM PEP and 250 μM ATP. This mixture is preincubated at 37° C. for 30 minutes before the addition of 3.77 units of LDH and 3.77 units of PK. The reaction is initiated by addition of the product to be evaluated, in varying concentrations, and of Hsp82, at the concentration of 1 μM. The enzymatic activity of Hsp82 is then measured continuously, in a microplate reader, at 37° C., at the wavelength of 340 nm. The initial rate of the reaction is obtained by measuring the slope of the tangent to the origin of the curve recorded. The enzymatic activity is expressed in μM of ADP formed per minute. The effect of the various products tested is expressed as 50% inhibitory concentration (1050) with respect to the ATPase activity, according to the codification below: […]

Chain of Hsp82 (P02829 whole entry): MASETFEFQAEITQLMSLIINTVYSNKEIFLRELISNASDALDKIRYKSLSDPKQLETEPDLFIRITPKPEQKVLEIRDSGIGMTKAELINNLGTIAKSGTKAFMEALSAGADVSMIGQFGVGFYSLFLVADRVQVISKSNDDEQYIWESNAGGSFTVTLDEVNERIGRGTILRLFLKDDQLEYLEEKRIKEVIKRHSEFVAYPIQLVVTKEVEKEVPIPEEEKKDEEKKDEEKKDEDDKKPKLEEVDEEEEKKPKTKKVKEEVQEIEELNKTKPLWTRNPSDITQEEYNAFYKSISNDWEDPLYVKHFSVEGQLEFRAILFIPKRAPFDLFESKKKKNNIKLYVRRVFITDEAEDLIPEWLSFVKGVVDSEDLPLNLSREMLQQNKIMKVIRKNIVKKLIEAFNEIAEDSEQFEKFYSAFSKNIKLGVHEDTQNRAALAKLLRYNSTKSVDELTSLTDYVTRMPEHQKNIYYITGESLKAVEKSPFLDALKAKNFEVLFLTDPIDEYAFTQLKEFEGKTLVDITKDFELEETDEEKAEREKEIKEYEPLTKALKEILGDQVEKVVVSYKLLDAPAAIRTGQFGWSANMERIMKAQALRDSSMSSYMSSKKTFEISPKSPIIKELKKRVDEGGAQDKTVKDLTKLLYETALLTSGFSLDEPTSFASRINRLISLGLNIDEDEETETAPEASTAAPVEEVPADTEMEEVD

Compound | pIC50 [1] | melting point | pIC50 [2]
Cc1nn(-c2ccc(C(N)=O)c(NC3CC4CCC3O4)c2)c2cccc(-c3cnc4ccccc4c3)c12 (stereo not drawn) [Example 14, 4-(3-methyl-4-quinolin-3-ylindazol-1-yl)-2-[exo-(7-oxabicyclo[2.2.1]hept-2-yl)amino]benzamide] | > 6.00 | 170 to 172 °C | 
Cc1nn(-c2cnc(C(N)=O)c(NCCc3ccccn3)c2)c2cccc(-c3cnc4ccccc4c3)c12 [Example 18, 5-[3-methyl-4-quinolin-3-ylindazol-1-yl]-3-[2-pyridin-2-ylethylamino]pyridine-2-carboxamide] | 5.00 to 6.00 |  | > 6.00
